Data set [1] is described as follows: Cmax in Swiss Webster mouse plasma at 100 umol/kg, ip. Format: ADME, cell-free. Details: dose 100 umol/kg, route intraperitoneal.
In data set [2] the test system is Liver. The data set can be described thus: Cmax in Swiss Webster mouse liver at 100 umol/kg, ip. Format: ADME, tissue-based. The arrangement: dose 100 umol/kg, route intraperitoneal. Particulars: in vivo.
In data set [3] the test system is Spleen. The data set can be described thus: Cmax in Swiss Webster mouse spleen at 100 umol/kg, ip. Format: ADME, tissue-based. Details: dose 100 umol/kg, route intraperitoneal. Particulars: in vivo.
The nature of data set [4]: AUC (last) in Swiss Webster mouse plasma at 100 umol/kg, po. Format: ADME, cell-free. Details: dose 100 umol/kg, route oral, time 0 - last.
Data set [5] deals with Liver. Kind of data set: AUC (last) in Swiss Webster mouse liver at 100 umol/kg, po. The class given is ADME, tissue-based. Details: dose 100 umol/kg, time 0 - last, route oral. Particulars: in vivo.
Data set [6] relates to Spleen. The data set can be described thus: AUC (last) in Swiss Webster mouse spleen at 100 umol/kg, po. The class given is ADME, tissue-based. Particulars: in vivo. Details: dose 100 umol/kg, time 0 - last, route oral.
The nature of data set [7]: AUC (last) in Swiss Webster mouse plasma at 100 umol/kg, ip. The class given is ADME, cell-free. Details: dose 100 umol/kg, route intraperitoneal, time 0 - last.
Data set [8] concerns Liver. Kind of data set: AUC (last) in Swiss Webster mouse liver at 100 umol/kg, ip. Format: ADME, tissue-based. Details: dose 100 umol/kg, time 0 - last, route intraperitoneal. Particulars: in vivo.
Data set [9] relates to Spleen. Kind of data set: AUC (last) in Swiss Webster mouse spleen at 100 umol/kg, ip. Format: ADME, tissue-based. The arrangement: dose 100 umol/kg, route intraperitoneal, time 0 - last. Particulars: in vivo.
The nature of data set [10]: Elimination half life in Swiss Webster mouse plasma at 100 umol/kg, ip. The class given is ADME, cell-free. Particulars: read-out: beta t1/2 (converted).
For data set [11], the system named is Liver. Kind of data set: Half life in mouse liver microsomes at 1 uM after 60 mins by HPLC-MS/MS analysis. Format: ADME. Particulars: 1 h.
Data set [12] relates to Leishmania donovani. The data set can be described thus: Antileishmanial activity against intracellular amastigote stage of Leishmania donovani MHOM/ET/67/L82 infected in mouse J774A1 cells by colorimetric assay. The class given is functional, organism-based. Particulars: MHOM/ET/67/L82, J774.A1.
For another data set, the system named is Leishmania amazonensis. Kind of data set: Antileishmanial activity against intracellular amastigote stage of Leishmania amazonensis LV78 infected in mouse J774A1 cells by colorimetric assay. The class given is functional, organism-based. Particulars: LV78, J774.A1.
A short description of data set [13]: Cytotoxicity against mouse J774A1 cells after 72 hrs by MTT assay. Format: cell-based. Particulars: J774.A1, 72 h. In general terms: Formazan colour is commonly taken as a measure of viable cells.
Data set [14] deals with Leishmania donovani. The data set can be described thus: Antileishmanial activity against antimony-resistant clinical isolate Leishmania donovani BPK164/1 infected in mouse J774A1 cells by colorimetric assay. Format: functional, organism-based. Particulars: BPK164/1, J774.A1.
Data set [15] can be described thus: Aqueous solubility of the compound at pH 7.4. The class given is physicochemical. Particulars: buffer.
Data set [16] in a line: Aqueous solubility of the compound at pH 2. Particulars: buffer. The class given is physicochemical.
Data set [17] can be described thus: Distribution coefficient, log D of the compound at pH 7.4. The class given is physicochemical. Particulars: octanol/water.
Data set [18] in a line: Distribution coefficient, log D of the compound at pH 3. Format: physicochemical. Particulars: octanol/water.
Data set [19] has as its system Mus musculus. Kind of data set: Toxicity in BALB/c mouse assessed as slowed breathing at 30 mg/kg, ip for 5 consecutive doses. Format: organism-based. The arrangement: dose 30 mg/kg, route intraperitoneal. Particulars: in vivo.
Data set [20] can be described thus: Cmax in Swiss Webster mouse plasma at 100 umol/kg, po. Details: dose 100 umol/kg, route oral. The class given is ADME, cell-free.
Data set [21] relates to Liver. Kind of data set: Cmax in Swiss Webster mouse liver at 100 umol/kg, po. The class given is ADME, tissue-based. Details: dose 100 umol/kg, route oral. Particulars: in vivo.
Data set [22] concerns Spleen. Kind of data set: Cmax in Swiss Webster mouse spleen at 100 umol/kg, po. Format: ADME, tissue-based. The arrangement: dose 100 umol/kg, route oral. Particulars: in vivo.
For data set [23] the following is noted: pampa, pH 7.4.
Description: (§1) Passive transcellular permeability of the compound at pH 7.4 by PAMPA
For data set [24] the following is noted: pampa, pH 4.
Description: (§2) Passive transcellular permeability of the compound at pH 4 by PAMPA
For data set [25], the system named is Leishmania donovani. The data set can be described thus: Antileishmanial activity against clinical isolate Leishmania donovani BPK206/0 infected in mouse J774A1 cells by colorimetric assay. Particulars: BPK206/0, J774.A1.
A short description of data set [26]: Elimination half life in Swiss Webster mouse plasma at 100 umol/kg, po. The class given is ADME, cell-free.
Data set [27] has as its system Mus musculus. Kind of data set: Toxicity in BALB/c mouse assessed as hypoactivity at 30 mg/kg, ip for 5 consecutive doses. Format: organism-based. The arrangement: dose 30 mg/kg, route intraperitoneal. Particulars: in vivo.
Data set [28] in a line: physchem. Particulars: pampa, pH 7.4.
Description: as §1
Data set [29] can be described thus: physchem. Particulars: pampa, pH 4.
Description: as §2
Data set [30] in a line: Selectivity index, ratio of EC50 for mouse J774A1 cells to EC50 for intracellular amastigote stage of Leishmania donovani MHOM/ET/67/L82. Particulars: read-out: Ratio EC50. The class given is toxicity, cell-based, J774.A1.
Data set [31] is described as follows: Toxicity in BALB/c mouse assessed as tolerated dose treated ip for 5 consecutive doses. The class given is organism-based. Particulars: in vivo.

Where only a bound is given, the exact number is not on record here.

As for `CCCCNc1nc(NCc2ccccc2)nc2ccccc12`, the Cmax – broadly, the peak of the concentration-time curve – stood at 5.21 µM in data set [1]; 148 µM in the data set on Liver [2]; 163 µM in the data set with Spleen [3]; 0.44 µM in data set [20]; 15.8 µM with Liver [21]; 7 µM with Spleen [22]. Moreover, the AUC(0-t) (usually exposure summed from dosing to a finite time, without extrapolation to infinity) in data set [4] came out at 7.8 µM·h; in data set [7], 11 µM·h. Further, the AUClast came out at 110 µM·h in the data set on Liver [5], 68 µM·h in the data set with Spleen [6], 500 µM·h with Liver [8] and 620 µM·h with Spleen [9]. Also, the half-life in data set [10] was 20 h. In the data set on Liver [11], this compound gave a t1/2 of 0.45 h. For the same compound, the EC50 – broadly, the concentration that produces a half-maximal response – in the data set on Leishmania donovani [12] turned out to be 0.34 µM; in the data set with Leishmania amazonensis it was 1.4 µM; in data set [13] it was 4.9 µM; with Leishmania donovani [14], 1.4 µM; in the data set on Leishmania donovani [25], 2 µM. The figures for the solubility in data set [15] and in [16] were no more than 10 µM and no less than 30 µM, respectively. Further, the logD (in general, the decadic logarithm of the distribution of all forms, ionised or not, between an organic phase and buffer at a given pH) in data set [17] turned out to be 3.84; in data set [18], 2.86. Moreover, the Activity result in the data set on Mus musculus [19] is listed as “Toxic”. The results for the permeability in data set [23] and in [24] were 1020 ×10⁻⁶ cm/s and 341 ×10⁻⁶ cm/s, respectively.
Consider `Cc1ccc2c(NCc3ccco3)nc(NC(C)C)nc2c1`, for which the Cmax is 2.67 µM in [1]; 48 µM in the data set on Liver [2]; 45.8 µM in the data set on Spleen [3]; 0.25 µM in data set [20]; 5.2 µM with Liver [21]; 0.9 µM with Spleen [22]. In addition, the AUC(0-t) in data set [4] was determined as 2.5 µM·h; in [7], 4.6 µM·h. In addition, the AUClast was determined as 29 µM·h with Liver [5], 7.4 µM·h with Spleen [6], 42 µM·h in the data set with Liver [8] and 71 µM·h in the data set on Spleen [9]. The half-life in data set [10] was 5.4 h; in data set [26] it was 20 h. Further, the t1/2 in the data set with Liver [11] worked out at 0.157 h. Besides, the half-maximal effective concentration (EC50) in the data set on Leishmania donovani [12] is 0.83 µM; with Leishmania amazonensis it was 4.1 µM; in [13], greater than 33 µM; in the data set with Leishmania donovani [14], 3.8 µM; with Leishmania donovani [25] it was 4.2 µM. Further, the solubility (commonly the dissolved amount per volume that the medium holds) is no more than 20 µM in data set [15] and no less than 30 µM in [16]. In addition, the logD came to 3.61 in data set [17] and 1.58 in [18]. In addition, the Activity result in the data set with Mus musculus [27] was “Toxic”. Also, the permeability stood at 798 ×10⁻⁶ cm/s in data set [23] and 67.2 ×10⁻⁶ cm/s in [24].
As for `CNC(=C[N+](=O)[O-])NCCSCc1ccc(CN(C)C)o1.Cl` [RANITIDINE HYDROCHLORIDE], the Papp (as a rule, the rate of passage across a membrane or cell layer, normalised by area and donor concentration) in “physchem [28]” came out at 5.2 ×10⁻⁶ cm/s; in “physchem [29]”, 2.2 ×10⁻⁶ cm/s.
`CNc1nc(NCc2ccccc2)nc2ccccc12`: the EC50 is 0.15 µM in the data set with Leishmania donovani [12]; 0.9 µM in the data set on Leishmania amazonensis; 15 µM in [13]; 2 µM in the data set with Leishmania donovani [14]; 2.8 µM in the data set with Leishmania donovani [25]. In data set [30], the selectivity ratio worked out at 100. The solubility in [15] is no more than 10 µM; in [16], no less than 30 µM. Further, the results for the logD in [17] and in [18] were 2.96 and 2, respectively. Moreover, the MTD (commonly the largest dose that counted as tolerated) at 5 consecutive doses in data set [31] is 30 mg/kg. The permeability in data set [23] came out at 1720 ×10⁻⁶ cm/s; in data set [24], 57.1 ×10⁻⁶ cm/s.
Turning to `OCCNc1nc(NCc2ccco2)c2ccccc2n1`, the half-maximal effective concentration (EC50) was 25 µM in the data set on Leishmania donovani [12], greater than 50 µM in the data set on Leishmania amazonensis and greater than 33 µM in data set [13]. In addition, the selectivity ratio in data set [30] was greater than 1.3. Also, the solubility in data set [15] was no more than 20 µM; in data set [16], no less than 30 µM. The logD in data set [17] was found to be 2.19; in data set [18], 1.48. For the same compound, the permeability in [23] turned out to be 1130 ×10⁻⁶ cm/s; in data set [24], 26.4 ×10⁻⁶ cm/s.
On to `CCCCNc1nc(NCCCC)c2ccccc2n1`, for which the 50% effective concentration (EC50) in the data set on Leishmania donovani [12] is 1.8 µM; with Leishmania amazonensis, 2.1 µM; in data set [13] it was 5.4 µM. In addition, the selectivity ratio in data set [30] turned out to be 3. Moreover, the figures for the solubility in data set [15] and in [16] were no more than 10 µM and no less than 30 µM, respectively. The logD in data set [17] was 3.89; in data set [18] it was 2.91. Also, the permeability was 880 ×10⁻⁶ cm/s in data set [23] and 485 ×10⁻⁶ cm/s in data set [24].
Turning to `NC(=O)N1c2ccccc2C=Cc2ccccc21` [CARBAMAZEPINE], the Papp in “physchem [28]” is 130 ×10⁻⁶ cm/s; in “physchem [29]” it was 108 ×10⁻⁶ cm/s.

The record behind these values is ChEMBL document CHEMBL3286201, “Antileishmanial activity of a series of N²,N⁴-disubstituted quinazoline-2,4-diamines” (J Med Chem, 2014).
